In patent US20070191324A1, “Methods for treatment or prophylaxis of aldosterone-mediated pathogenic effects in a subject using an epoxy-steroidal aldosterone antagonist” (priority 1999, published 2007):

Columns and labels:
[1] = tested on: saline-loaded adrenalectomized rats treated with aldosterone; experiment: Antimineralocorticoid activity in saline-loaded adrenalectomized rats treated with aldosterone (Example A-2); type: in vivo
Description: Methods: The antimineralocorticoid pharmacological activity was determined in saline-loaded adrenalectomized rats treated with aldosterone. […] Urinary sodium, potassium and water excretion were measured.

saline-drinking SHRSP = experiment: Renal pathologic changes in saline-drinking SHRSP, Protocol 1 (Example A-8); type: in vivo, rat (SHRSP/A3N)
Description: Animals. Studies were conducted in accordance with institutional guidelines using male […] (generations […]-78), n=37, from our local colony. These animals were bred from NIH stock, derived from the […] substrain described originally by Okamoto and coworkers (Okamoto K et al. Circ. […] All animals were housed in a room maintained on a 12:12-h light:dark-cycle and an ambient temperature of 22±1° C. in the Animal Care Facility at New York Medical College. Rats were weaned at 4 weeks of age and allowed free access to Purina Lab Chow 5001 (Ralston Purina, St. Louis, Mo.) and tap water until the initiation of experimental protocols. […] Animals were examined each day for neurologic signs of stroke. Systolic arterial pressure and heart rate were measured each week in awake rats. […] Trunk blood was collected into chilled EDTA tubes following rapid decapitation of the animals between 10:00 am and 12:00 pm. Blood was stored at -20° C. for later measurement of plasma aldosterone levels. The kidneys were rapidly removed, weighed, and then preserved in fixative for later histologic examination. Assays and Analyses. Systolic blood pressure and heart rate of awake animals were measured by tail-cuff plethysmography using a Natsume KN-210 manometer and tachometer (Peninsula Laboratories Inc., Belmont, Calif.). Rats were warmed at 37° C. for 10 min and allowed to rest quietly in a Lucite chamber before measurement of blood pressure. Measurements of urine volume were made gravimetrically. Urinary protein concentration was determined by the sulfosalicylic acid turbidity method. Plasma aldosterone was measured by radioimmunoassay using ^125I-aldosterone as a tracer (Coat-a Count Aldosterone, Diagnostic Products Co., Los Angeles, Calif.). Histology. […] Coronal sections (2-3 μm) were stained with hematoxylin and eosin and examined by light microscopy in a blinded fashion as previously described ([…] et al. […] Glomerular damage was categorized as ischemic or thrombotic. Ischemic lesions were defined as retraction of glomerular capillary tufts with or without appreciable mesangiolysis. […] The presence of casts and tubular (ischemic) retraction and simplification was assessed semiquantitatively. […] Significant effects with respect to treatment and time were determined by two-way analysis of variance. Data with only one grouping variable were analyzed statistically by Student's unpaired t tests. […] Data were analyzed using version 2.01 of the GraphPad Prism statistical software package (GraphPad Software Inc., San Diego, Calif.). […]

[2] = tested on: patients with hypertension; experiment: Dose-ranging study of eplerenone vs placebo and spironolactone in hypertension (Examples A-14, D-1); type: in vivo, human
Description: A multicenter, randomized, double-blind, parallel group study was conducted in patients with hypertension. […] The study consisted of a two-week pretreatment period for completion of screening procedures and discontinuation of any current antihypertensive medication(s). The screening period was followed by a four-week single-blind placebo lead-in treatment period. Randomization was followed by an eight-week double-blind active or placebo treatment period. The primary efficacy measure was the change from baseline in cuff diastolic blood pressure measured at trough as compared to placebo. Secondary efficacy measures included changes in cuff assessed trough systolic blood pressure and changes in average 24-hour diastolic and systolic blood pressure assessed by ambulatory blood pressure monitoring. Safety was assessed by conducting routine clinical lab tests, physical exams, ECGs, and monitoring for adverse events. […] The adjusted mean change in blood pressure (mm Hg) from baseline to final visit is described in Table […].

[3] = tested on: patients with hypertension and left ventricular hypertrophy; experiment: Eplerenone, enalapril and combination in left ventricular hypertrophy, 9 months (Examples A-15, D-4); type: in vivo, human
Text: Table […] illustrates forth the above-described dosing scheme. […] Additional laboratory assessments of blood for clinical safety will be done monthly. Routine urinalysis will be done every three months. […] A blood sample for genotyping will be collected at Week 0. At screening and at Month 9, a 12-lead ECG and physical examination will be done. […] In case of early termination, an MRI and blood sample for TSH will be done for those patients who have received double-blind treatment for at least three months. At Weeks 0, 12 and Months 6 and 9, pharmacoeconomic data will be collected on all patients. The primary measure of efficacy is the change from baseline in LVM, as assessed by MRI, in the eplerenone group versus the enalapril group. […] Secondary measures of efficacy will be the following: […] (3) aortic compliance and ventricular filling parameters; and (4) special studies (PIIINP, microalbuminuria, PAI, and tPA). Additionally, the long-term safety and tolerability of the three treatment groups will be compared. […] The study design is illustrated in FIG. D-10. […] Left ventricular mass (LVM) (assayed by MRI), BP, collagen turnover, and tolerability were assessed at the 9-month endpoint.

[4] = tested on: patients with low-renin hypertension; experiment: Eplerenone versus losartan in low-renin hypertension, 16 weeks (Examples A-16, D-5); type: in vivo, human
Text: Patients will continue on therapy until Week 16. Table […] illustrates the above-described dosing scheme. […] Plasma renin will be determined at screening; serum aldosterone, plasma renin, and plasma cortisol will be determined at Weeks 0, 8, and 16. […] A 12-lead electrocardiogram will be done at Weeks 0 and 16. Physical examinations will be completed at screening and at Week 16. […] Secondary measures of efficacy will be the following: […] Study design is illustrated in FIG. D-16. […] At Weeks 8 and 16, BP, RAAS hormone profile, and safety were assessed.

[5] = 9-month endpoint, forced titration
[6] = 9-month endpoint, EPL 200 mg, ENAL 40 mg, EPL 200 mg/ENAL 10 mg
[7] = Week 8 (monotherapy), EPL 100-200 mg QD, LOS 50-100 mg QD
[8] = Week 16, after allowed addition of HCTZ

COC(=O)[C@@H]1CC2=CC(=O)CC[C@]2(C)[C@@]23O[C@@H]2C[C@@]2(C)[C@@H](CC[C@@]24CCC(=O)O4)[C@H]13 [Eplerenone, Pregn-4-ene-7,21-dicarboxylic acid, 9,11-epoxy-17-hydroxy-3-oxo-, γ-lactone, methyl ester, (7α, 11α, 17β)-]
Urinary Na/K ± SEM ([1]; aldosterone & antagonist 1 mg/kg by gavage): 2.53 ± 0.23 | Urinary Na/K ± SEM ([1]; aldosterone & antagonist 3 mg/kg by gavage): 4.08 ± 0.26 | Urinary Na/K ± SEM ([1]; aldosterone & antagonist 10 mg/kg by gavage): 4.11 ± 0.27 | Glomerular damage, Total (saline-drinking SHRSP; 100 mg/kg/d by gavage, 8.4 to 13.1 weeks of age): only rare instances of ischemic or thrombotic glomeruli | plasma concentration of aldosterone (saline-drinking SHRSP; 100 mg/kg/d, 5 weeks): 315 ± 35 pg/mL | signs of stroke (saline-drinking SHRSP; 100 mg/kg/d, 5 weeks): none of eplerenone-treated SHRSP showed evidence of stroke | tubules with ischemic retraction and simplification (saline-drinking SHRSP; 100 mg/kg/d, 5 weeks): 0.5±0.2% | gynecomastia ([2]; 50-400 mg daily, 8 weeks): no reports of gynecomastia | safety and tolerability ([2]; 50-400 mg daily, QD or divided doses): safe and well tolerated | DBP and SBP vs. placebo ([2]; wide range of doses, regardless of assessment method (FIG. D-1, D-2)): significant reductions | DBP Adjusted mean change [3, 5]: −10.8 mmHg | SBP Adjusted mean change [3, 5]: −21.0 mmHg | decrease from baseline in UACR [3, 6]: −28.7% | decrease from baseline in collagen turnover [3, 6]: −7.3% | patients experiencing coughing ([3]; 9-month study): 3.1% | LVM Adjusted mean change [g (SE)] ([3]; left ventricular mass by MRI, 9-month endpoint, forced titration (EPL 50-200 mg, ENAL 10-40 mg)): −14.5 (3.36) g | regressing LVH and reducing collagen turnover ([3]; monotherapy): as effective as enalapril monotherapy | cumulative percentage of patients requiring HCTZ add-on therapy ([4]; 16 weeks): 32.5% | increase in active renin levels ([4]; Week 8): +50.1% | increase in serum aldosterone levels ([4]; Week 8): +74.7% | mean change from baseline in DBP [4, 7]: −9.3 mmHg | mean change from baseline in SBP [4, 7]: −15.8 mmHg | increase in active renin levels ([4]; Week 16): +73.0% | increase in serum aldosterone levels ([4]; Week 16): +89.8% | mean change from baseline in DBP [4, 8]: −10.8 mmHg | mean change from baseline in SBP [4, 8]: −18.3 mmHg | safety and tolerability ([4]; in vivo): safe and well tolerated
